Test results published in US11028079B2 (ConverGene LLC, priority 2015, dated 2021).

Molecular target: T1, BRD4 bromodomains (Homo sapiens, UniProt O60885)
T1 construct: fused on or other part: T7 phage capsid protein (phage-display fusion; the phage DNA is read out by qPCR)
Assay: BROMOscan bromodomain competition binding assay (DiscoveRx)
Conditions: Kd from 11 compound concentrations ranging from 0 to 10 μM, read-out: BROMOscan Relative Activity
Summary of the method: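 Compounds in 0.1% DMSO/0.9% MEG competed with a solid-phase acetylated peptide for T7 phage-fused BRD4 bromodomains, with the retained bromodomain measured by qPCR.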

Cc1nn(C)cc1CNC(=O)c1nc(NC2(c3cccc(Cl)c3)CC2)c2cc(-c3c(C)noc3C)ccc2n1 [Example 245, 4-((1-(3-chlorophenyl)cyclopropyl)amino)-N-((1,3-dimethyl-1H-pyrazol-4-yl)methyl)-6-(3,5-dimethylisoxazol-4-yl)quinazoline-2-carboxamide]
Kd: < 500 nM

Cc1noc(C)c1-c1ccc2nc(C(=O)NC3CCS(=O)(=O)CC3)nc(NC3(c4cccc(Cl)c4)CC3)c2c1 [Example 246, 4-((1-(3-chlorophenyl)cyclopropyl)amino)-6-(3,5-dimethylisoxazol-4-yl)-N-(1,1-dioxidotetrahydro-2H-thiopyran-4-yl)quinazoline-2-carboxamide]
Kd: < 500 nM

Cc1noc(C)c1-c1ccc2nc(C(=O)NC3CCOCC3)nc(NC3(c4cccc(Cl)c4)CC3)c2c1 [Example 247, 4-((1-(3-chlorophenyl)cyclopropyl)amino)-6-(3,5-dimethylisoxazol-4-yl)-N-(tetrahydro-2H-pyran-4-yl)quinazoline-2-carboxamide]
Kd: < 500 nM

Cc1noc(C)c1-c1ccc2nc(N3CCN(C(=O)N(C)C)CC3)nc(NCc3cncc(Cl)c3)c2c1 [Example 248, 4-(4-(((5-chloropyridin-3-yl)methyl)amino)-6-(3,5-dimethylisoxazol-4-yl)quinazolin-2-yl)-N,N-dimethylpiperazine-1-carboxamide]
Kd: < 500 nM

Cc1cc(CNC(=O)c2nc(NCc3cccc(Cl)c3)c3cc(-c4c(C)noc4C)ccc3n2)ccn1 [Example 249, 4-((3-chlorobenzyl)amino)-6-(3,5-dimethylisoxazol-4-yl)-N-((2-methylpyridin-4-yl)methyl)quinazoline-2-carboxamide]
Kd: < 500 nM

Cc1noc(C)c1-c1ccc2nc(C(=O)N[C@H]3CC[C@H](O)CC3)nc(NCc3cccc(Cl)c3)c2c1 [Example 250, 4-((3-chlorobenzyl)amino)-6-(3,5-dimethylisoxazol-4-yl)-N-((trans)-4-hydroxycyclohexyl)quinazoline-2-carboxamide]
Kd: < 500 nM

Cc1noc(C)c1-c1ccc2nc(C(=O)NCc3nccn3C)nc(NCc3cccc(Cl)c3)c2c1 [Example 251, 4-((3-chlorobenzyl)amino)-6-(3,5-dimethylisoxazol-4-yl)-N-((1-methyl-1H-imidazol-2-yl)methyl)quinazoline-2-carboxamide]
Kd: < 500 nM

Cc1noc(C)c1-c1ccc2nc(C(=O)NC3CCC(F)(F)CC3)nc(NCc3cccc(Cl)c3)c2c1 [Example 252, 4-((3-chlorobenzyl)amino)-N-(4,4-difluorocyclohexyl)-6-(3,5-dimethylisoxazol-4-yl)quinazoline-2-carboxamide]
Kd: 500 to 5000 nM

Cc1noc(C)c1-c1ccc2nc(C(=O)N[C@H]3C[C@H](O)C3)nc(NCc3cccc(Cl)c3)c2c1 [Example 253, 4-((3-chlorobenzyl)amino)-6-(3,5-dimethylisoxazol-4-yl)-N-((trans)-3-hydroxycyclobutyl)quinazoline-2-carboxamide]
Kd: < 500 nM

Cc1noc(C)c1-c1ccc2nc(N3CCN(CCN(C)C)CC3)nc(N3CCC(C(=O)O)CC3)c2c1 [Example 254, 1-(2-(4-(2-(dimethylamino)ethyl)piperazin-1-yl)-6-(3,5-dimethylisoxazol-4-yl)quinazolin-4-yl)piperidine-4-carboxylic acid]
Kd: 500 to 5000 nM

Cc1noc(C)c1-c1ccc2nc(-c3cnn(CCO)c3)nc(N3CCC(C(=O)O)CC3)c2c1 [Example 255, 1-(6-(3,5-dimethylisoxazol-4-yl)-2-(1-(2-hydroxyethyl)-1H-pyrazol-4-yl)quinazolin-4-yl)piperidine-4-carboxylic acid]
Kd: 500 to 5000 nM

Cc1noc(C)c1-c1ccc2nc(C(=O)NCC3CC(F)(F)C3)nc(NCc3cccc(Cl)c3)c2c1 [Example 256, 4-((3-chlorobenzyl)amino)-N-((3,3-difluorocyclobutyl)methyl)-6-(3,5-dimethylisoxazol-4-yl)quinazoline-2-carboxamide]
Kd: 500 to 5000 nM
